Experiments:
Assay type in all cases: cell-based
[1] = molecular target: T1, human muscarinic M1 receptor (Homo sapiens, UniProt P11229); experiment: Alphascreen Surefire phospho-ERK1/2 functional assay, M1; conditions: phospho-ERK1/2; for EC50 / % Emax cf. ACh (M1): CHO cells stably expressing human M1; for EC50: read-out: pEC50 M1 (converted); for Emax: CHO, read-out: % Emax cf. ACh (M1), CHO cells stably expressing human M1; for Emax / % Emax cf. ACh (M1): relative to ACh
T1 sequence (P11229 1-460): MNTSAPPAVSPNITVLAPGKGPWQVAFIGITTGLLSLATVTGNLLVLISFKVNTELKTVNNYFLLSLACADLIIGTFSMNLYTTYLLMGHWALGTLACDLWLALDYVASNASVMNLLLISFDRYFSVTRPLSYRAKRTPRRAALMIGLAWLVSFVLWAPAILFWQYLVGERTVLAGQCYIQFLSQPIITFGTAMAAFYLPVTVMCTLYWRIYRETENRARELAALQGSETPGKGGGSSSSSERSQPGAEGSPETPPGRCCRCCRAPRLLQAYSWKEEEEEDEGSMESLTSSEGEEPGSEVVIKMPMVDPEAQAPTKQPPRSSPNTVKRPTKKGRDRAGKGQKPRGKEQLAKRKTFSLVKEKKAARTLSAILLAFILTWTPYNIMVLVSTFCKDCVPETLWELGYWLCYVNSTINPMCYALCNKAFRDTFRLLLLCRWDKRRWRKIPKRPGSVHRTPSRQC
Protocol: (§1) ERK1/2 phosphorylation is a downstream consequence of both Gq/11 and Gi/o protein coupled receptor activation, making it highly suitable for the assessment of M1, M3 (Gq/11 coupled) and M2, M4 receptors (Gi/o coupled), rather than using different assay formats for different receptor subtypes. CHO cells stably expressing the human muscarinic M1, M2, M3 or M4 receptor were plated (25K/well) onto 96-well tissue culture plates in MEM-alpha+10% dialysed FBS. Once adhered, cells were serum-starved overnight. Agonist stimulation was performed by the addition of 5 μL agonist to the cells for 5 min (37° C.). Media was removed and 50 μL of lysis buffer added. After 15 min, a 4 μL sample was transferred to 384-well plate and 7 μL of detection mixture added.

[2] = molecular target: T2, human muscarinic M4 receptor (Homo sapiens, UniProt P08173); experiment: Alphascreen Surefire phospho-ERK1/2 functional assay, M4; conditions: phospho-ERK1/2; for EC50 / % Emax cf. ACh (M4): CHO cells stably expressing human M4; for EC50: read-out: pEC50 M4 (converted); for Emax: CHO, read-out: % Emax cf. ACh (M4), CHO cells stably expressing human M4; for Emax / % Emax cf. ACh (M4): relative to ACh
T2 construct: expressed in transfected cells
T2 sequence (P08173 1-479): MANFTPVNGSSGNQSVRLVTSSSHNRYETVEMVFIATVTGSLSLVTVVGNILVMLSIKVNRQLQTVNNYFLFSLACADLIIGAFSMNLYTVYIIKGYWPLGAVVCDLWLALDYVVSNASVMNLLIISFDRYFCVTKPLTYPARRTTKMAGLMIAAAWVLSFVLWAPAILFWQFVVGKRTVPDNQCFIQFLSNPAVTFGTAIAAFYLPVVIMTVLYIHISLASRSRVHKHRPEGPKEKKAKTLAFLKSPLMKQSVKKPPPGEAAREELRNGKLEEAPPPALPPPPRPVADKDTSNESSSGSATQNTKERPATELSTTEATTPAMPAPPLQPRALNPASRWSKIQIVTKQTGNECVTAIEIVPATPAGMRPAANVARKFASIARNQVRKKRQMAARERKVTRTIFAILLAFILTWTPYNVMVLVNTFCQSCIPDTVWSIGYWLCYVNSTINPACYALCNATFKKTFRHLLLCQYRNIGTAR

[3] = molecular target: T3, human muscarinic M3 receptor (Homo sapiens, UniProt P20309); experiment: Alphascreen Surefire phospho-ERK1/2 functional assay, M3; conditions: phospho-ERK1/2; for EC50: CHO cells stably expressing human M3, read-out: pEC50 M3 (converted); for Emax: CHO, read-out: % Emax cf. ACh (M3), CHO cells stably expressing human M3, relative to ACh
T3 construct: expressed in transfected cells
Protocol: as §1

[4] = molecular target: T4, human muscarinic M2 receptor (Homo sapiens, UniProt P08172); experiment: Alphascreen Surefire phospho-ERK1/2 functional assay, M2; conditions: for EC50: CHO cells stably expressing human M2, read-out: pEC50 M2 (converted); for Emax: CHO, read-out: % Emax cf. ACh (M2), CHO cells stably expressing human M2, relative to ACh
T4 sequence (P08172 1-466): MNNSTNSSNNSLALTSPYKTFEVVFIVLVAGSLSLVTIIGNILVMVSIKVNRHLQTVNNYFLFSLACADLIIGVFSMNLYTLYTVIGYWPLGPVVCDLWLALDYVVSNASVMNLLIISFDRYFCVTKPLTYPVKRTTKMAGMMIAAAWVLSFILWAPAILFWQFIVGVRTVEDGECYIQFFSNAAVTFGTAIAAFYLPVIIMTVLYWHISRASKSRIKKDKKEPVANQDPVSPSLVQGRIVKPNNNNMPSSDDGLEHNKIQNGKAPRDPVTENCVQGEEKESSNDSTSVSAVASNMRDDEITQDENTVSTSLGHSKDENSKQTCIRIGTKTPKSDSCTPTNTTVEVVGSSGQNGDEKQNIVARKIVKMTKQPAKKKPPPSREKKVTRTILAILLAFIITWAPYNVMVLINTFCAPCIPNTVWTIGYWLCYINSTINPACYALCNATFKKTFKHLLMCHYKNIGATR
Protocol: as §1

T3 sequence (P20309 whole entry): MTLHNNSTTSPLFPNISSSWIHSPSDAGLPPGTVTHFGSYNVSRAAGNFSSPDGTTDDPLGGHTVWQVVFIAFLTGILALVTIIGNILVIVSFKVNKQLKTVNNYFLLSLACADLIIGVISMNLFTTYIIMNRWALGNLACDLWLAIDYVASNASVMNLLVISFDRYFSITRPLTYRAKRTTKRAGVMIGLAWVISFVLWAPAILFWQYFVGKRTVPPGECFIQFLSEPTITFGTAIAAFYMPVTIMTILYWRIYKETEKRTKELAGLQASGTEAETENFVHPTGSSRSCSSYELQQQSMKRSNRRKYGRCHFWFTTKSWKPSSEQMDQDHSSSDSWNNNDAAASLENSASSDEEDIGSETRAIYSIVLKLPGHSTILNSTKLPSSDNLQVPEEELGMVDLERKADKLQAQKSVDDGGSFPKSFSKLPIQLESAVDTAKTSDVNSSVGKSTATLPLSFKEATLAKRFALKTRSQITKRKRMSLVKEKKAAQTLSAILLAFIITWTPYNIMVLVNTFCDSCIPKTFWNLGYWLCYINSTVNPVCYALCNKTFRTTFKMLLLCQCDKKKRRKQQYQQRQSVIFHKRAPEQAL

Row | SMILES | EC50 [1] | Emax [1] | EC50 [2] | Emax [2] | EC50 [3] | Emax [3] | EC50 [4] | Emax [4] | % Emax cf. ACh (M1) [1] | % Emax cf. ACh (M4) [2]
1 | CCOC(=O)N1CCC2(CC(N3CCC(N(CC)C(=O)OC)CC3)C2)C1 (single isomer, unassigned) [2-39 Isomer 2] | 316 nM | 39% | 25.1 nM | 126% | > 20 µM | 25% | > 20 µM | 12% | – | –
2 | CCOC(=O)N1CCC2(CC(N3CCC(N(CCOC)C4CC4)CC3)C2)C1 (single isomer, unassigned) [2-8 Isomer 2] | > 20000 nM | 4% | 20 nM | 57% | > 20 µM | 6% | > 20 µM | 6% | – | –
3 | CCOC(=O)N1CCC2(CC(N3CCC(N(C(C)=O)C4CCC4)CC3)C2)C1 (single isomer, unassigned) [2-6 Isomer 2] | 100 nM | 101% | 31.6 nM | 98% | > 20 µM | 14% | > 20 µM | 7% | – | –
4 | CCOC(=O)N1CCC2(CC(N3CCC(N(CC(F)(F)F)C4COC4)CC3)C2)C1 (single isomer, unassigned) [2-54 Isomer 2] | 251 nM | 106% | 31.6 nM | 98% | > 20 µM | 20% | > 20 µM | 28% | – | –
5 | CCOC(=O)N1CCC2(CC(N3CCC(N(C(=O)C(F)(F)F)C4CC4)CC3)C2)C1 (single isomer, unassigned) [2-4 Isomer 2] | 200 nM | 104% | 31.6 nM | 114% | > 20 µM | 9% | > 20 µM | 3% | – | –
6 | CCOC(=O)N1CCC2(CC(N3CCC(N(CC)Cc4cnco4)CC3)C2)C1 (single isomer, unassigned) [2-60 Isomer 2] | > 20000 nM | 62% | 63.1 nM | 111% | > 20 µM | 56% | > 20 µM | 20% | – | –
7 | CCOC(=O)N1CCC2(CC(N3CCC(N(C(=O)CC)C4CC4)CC3)C2)C1 (single isomer, unassigned) [2-5 Isomer 2] | 631 nM | 57% | 100 nM | 91% | > 20 µM | 5% | > 20 µM | 5% | – | –
8 | CCOC(=O)N1CCC2(CC(N3CCC(N(Cc4cnco4)CC(F)(F)F)CC3)C2)C1 (single isomer, unassigned) [2-62 Isomer 2] | 1000 nM | 85% | 20 nM | 106% | > 20 µM | 11% | > 20 µM | 12% | – | –
9 | CCOC(=O)N1CCC2(CC(N3CCC(N(CC4CC4)C(C)=O)CC3)C2)C1 (single isomer, unassigned) [2-20 Isomer 2] | 200 nM | – | 39.8 nM | – | > 20 µM | 33% | > 20 µM | 60% | 113% | 108%
10 | CCOC(=O)N1CCC2(CC(N3CCC(N(CC(C)C)C(C)=O)CC3)C2)C1 (single isomer, unassigned) [2-19 Isomer 2] | 100 nM | – | 63.1 nM | – | > 20 µM | 58% | > 20 µM | 31% | 115% | 118%
11 | CCOC(=O)N1CCC2(CC(N3CCC(N(Cc4ccccc4)CC(F)(F)F)CC3)C2)C1 (single isomer, unassigned) [2-59 Isomer 2] | > 20000 nM | 9% | 79.4 nM | 52% | > 20 µM | 14% | > 20 µM | 9% | – | –
12 | CCOC(=O)N1CCC2(CC(N3CCC(N(C(=O)OC)C4COC4)CC3)C2)C1 (single isomer, unassigned) [2-47 Isomer 2] | 398 nM | 113% | 63.1 nM | 90% | 1.26 µM | 63% | 0.501 µM | 29% | – | –
13 | CCOC(=O)N1CCC2(CC(N3CCC(N(CC(F)(F)F)C(=O)OC)CC3)C2)C1 (single isomer, unassigned) [2-42 Isomer 2] | 1580 nM | 120% | 100 nM | 112% | > 20 µM | 39% | > 20 µM | 21% | – | –
14 | CCOC(=O)N1CCC2(CC(N3CCC(N(CC(C)(C)OC)C(C)=O)CC3)C2)C1 (single isomer, unassigned) [2-29 Isomer 2] | 200 nM | – | 158 nM | – | > 20 µM | 73% | 1.26 µM | 29% | 99% | 84%
15 | CCOC(=O)N1CCC2(CC(N3CCC(N(OC)C(C)=O)CC3)C2)C1 (single isomer, unassigned) [2-32 Isomer 2] | 2510 nM | 82% | 39.8 nM | 115% | > 20 µM | 5% | > 20 µM | 9% | – | –
16 | CCOC(=O)N1CCC2(CC(N3CCC(N(C=O)CC)CC3)C2)C1 (single isomer, unassigned) [2-16 Isomer 2] | 398 nM | 89% | 39.8 nM | 91% | > 20 µM | 2% | > 20 µM | 5% | – | –
17 | CCOC(=O)N1CC2(CCC(N3CCC(N(C(C)=O)C4CC4)CC3)C2)C1 (racemic) [3-1 Racemic] | > 20000 nM | 19% | 10 nM | 46% | > 20 µM | 5% | > 20 µM | 2% | – | –
18 | CCN(C(C)=O)C1CCN(C2CCC3(C2)CN(C(=O)OC)C3)CC1 (single isomer, unassigned) [3-2 Isomer 2] | 316 nM | 42% | 31.6 nM | 94% | > 20 µM | 37% | > 20 µM | 29% | – | –
19 | CCOC(=O)N1CCC2(CC(N3CCC(OC(C)c4ccccc4)CC3)C2)C1 (single isomer, unassigned) [2-66 Isomer 2] | > 20000 nM | 59% | 39.8 nM | 76% | > 20 µM | 8% | > 20 µM | 17% | – | –
